Experimental data reported in the NIST ThermoML archive (doi:10.1021/je800356x).

Assay: molar heat capacity at constant pressure
Conditions: 101.33 kPa, Liquid, Small sample (50 mg) DSC

OCCCCO [1,4-butanediol]
Conditions	molar heat capacity at constant pressure [J/K/mol]
293.15 K	200.51
294.65 K	201.33
296.15 K	202.16
297.65 K	202.99
298.15 K	203.27
299.15 K	203.82
300.65 K	204.67
302.15 K	205.51
303.65 K	206.36
305.15 K	207.22
306.65 K	208.08
308.15 K	208.95
309.65 K	209.82
311.15 K	210.7
312.65 K	211.58
314.15 K	212.47
315.65 K	213.36
317.15 K	214.26
318.65 K	215.17
320.15 K	216.08
321.65 K	216.99
323.15 K	217.91
324.65 K	218.83
326.15 K	219.76
327.65 K	220.7
329.15 K	221.64
330.65 K	222.58
332.15 K	223.53
333.65 K	224.49
335.15 K	225.45
336.65 K	226.41
338.15 K	227.38
339.65 K	228.36
341.15 K	229.34
342.65 K	230.33
344.15 K	231.32
345.65 K	232.32
347.15 K	233.32
348.65 K	234.32
350.15 K	235.34
351.65 K	236.35
353.15 K	237.38

OCCCO [propan-1,3-diol]
Conditions	molar heat capacity at constant pressure [J/K/mol]
293.15 K	173.4
294.65 K	174.11
296.15 K	174.83
297.65 K	175.54
298.15 K	175.78
299.15 K	176.26
300.65 K	176.98
302.15 K	177.7
303.65 K	178.42
305.15 K	179.15
306.65 K	179.87
308.15 K	180.59
309.65 K	181.32
311.15 K	182.05
312.65 K	182.78
314.15 K	183.51
315.65 K	184.24
317.15 K	184.97
318.65 K	185.7
320.15 K	186.44
321.65 K	187.17
323.15 K	187.91
324.65 K	188.65
326.15 K	189.38
327.65 K	190.12
329.15 K	190.87
330.65 K	191.61
332.15 K	192.35
333.65 K	193.1
335.15 K	193.84
336.65 K	194.59
338.15 K	195.34
339.65 K	196.09
341.15 K	196.84
342.65 K	197.59
344.15 K	198.34
345.65 K	199.1
347.15 K	199.85
348.65 K	200.61
350.15 K	201.37
351.65 K	202.13
353.15 K	202.89

OCCO [1,2-ethanediol]
Conditions	molar heat capacity at constant pressure [J/K/mol]
293.15 K	148.1
294.65 K	148.57
296.15 K	149.05
297.65 K	149.53
298.15 K	149.69
299.15 K	150.01
300.65 K	150.48
302.15 K	150.96
303.65 K	151.44
305.15 K	151.92
306.65 K	152.4
308.15 K	152.88
309.65 K	153.36
311.15 K	153.83
312.65 K	154.31
314.15 K	154.79
315.65 K	155.27
317.15 K	155.75
318.65 K	156.23
320.15 K	156.71
321.65 K	157.19
323.15 K	157.67
324.65 K	158.15
326.15 K	158.63
327.65 K	159.11
329.15 K	159.6
330.65 K	160.08
332.15 K	160.56
333.65 K	161.04
335.15 K	161.52
336.65 K	162
338.15 K	162.49
339.65 K	162.97
341.15 K	163.45
342.65 K	163.93
344.15 K	164.42
345.65 K	164.9
347.15 K	165.38
348.65 K	165.86
350.15 K	166.35
351.65 K	166.83
353.15 K	167.32

OCCCCCCCCCO [1,9-nonanediol]
Conditions	molar heat capacity at constant pressure [J/K/mol]
318.65 K	389.02
320.15 K	391.15
321.65 K	393.27
323.15 K	395.39
324.65 K	397.51
326.15 K	399.62
327.65 K	401.73
329.15 K	403.84
330.65 K	405.94
332.15 K	408.03
333.65 K	410.12
335.15 K	412.21
336.65 K	414.3
338.15 K	416.38
339.65 K	418.45
341.15 K	420.52
342.65 K	422.59
344.15 K	424.66
345.65 K	426.72
347.15 K	428.77
348.65 K	430.82
350.15 K	432.87
351.65 K	434.92
353.15 K	436.95

OCCCCCCCCO [1,8-octanediol]
Conditions	molar heat capacity at constant pressure [J/K/mol]
333.65 K	371.35
335.15 K	373.24
336.65 K	375.13
338.15 K	377.03
339.65 K	378.93
341.15 K	380.83
342.65 K	382.74
344.15 K	384.65
345.65 K	386.56
347.15 K	388.48
348.65 K	390.4
350.15 K	392.32
351.65 K	394.24
353.15 K	396.17

OCCCCCCCO [1,7-heptanediol]
Conditions	molar heat capacity at constant pressure [J/K/mol]
293.15 K	292.06
294.65 K	293.4
296.15 K	294.75
297.65 K	296.11
299.15 K	297.48
300.65 K	298.87
302.15 K	300.26
303.65 K	301.67
305.15 K	303.09
306.65 K	304.51
308.15 K	305.95
309.65 K	307.41
311.15 K	308.87
312.65 K	310.34
314.15 K	311.83
315.65 K	313.33
317.15 K	314.83
318.65 K	316.35
320.15 K	317.88
321.65 K	319.43
323.15 K	320.98
324.65 K	322.54
326.15 K	324.12
327.65 K	325.71
329.15 K	327.31
330.65 K	328
332.15 K	330.54
333.65 K	332.17
335.15 K	333.81
336.65 K	335.47
338.15 K	337.13
339.65 K	338.81
341.15 K	340.5
342.65 K	342.2
344.15 K	343.91
345.65 K	345.63
347.15 K	347.37
348.65 K	349.11
350.15 K	350.87
351.65 K	352.64
353.15 K	354.42

OCCCCCO [1,5-pentanediol]
Conditions	molar heat capacity at constant pressure [J/K/mol]
293.15 K	229.04
294.65 K	230.06
296.15 K	231.1
297.65 K	232.14
298.15 K	232.49
299.15 K	233.19
300.65 K	234.25
302.15 K	235.31
303.65 K	236.39
305.15 K	237.47
306.65 K	238.56
308.15 K	239.66
309.65 K	240.77
311.15 K	241.89
312.65 K	243.01
314.15 K	244.14
315.65 K	245.28
317.15 K	246.43
318.65 K	247.59
320.15 K	248.76
321.65 K	249.93
323.15 K	251.11
324.65 K	252.3
326.15 K	253.5
327.65 K	254.7
329.15 K	255.92
330.65 K	257.14
332.15 K	258.37
333.65 K	259.61
335.15 K	260.86
336.65 K	262.11
338.15 K	263.38
339.65 K	264.65
341.15 K	265.93
342.65 K	267.22
344.15 K	268.51
345.65 K	269.82
347.15 K	271.13
348.65 K	272.45
350.15 K	273.78
351.65 K	275.12
353.15 K	276.46

OCCCCCCO [1,6-hexanediol]
Conditions	molar heat capacity at constant pressure [J/K/mol]
318.65 K	282.66
320.15 K	284.25
321.65 K	285.84
323.15 K	287.42
324.65 K	288.99
326.15 K	290.55
327.65 K	292.12
329.15 K	293.67
330.65 K	295.22
332.15 K	296.76
333.65 K	298.3
335.15 K	299.83
336.65 K	301.36
338.15 K	302.88
339.65 K	304.4
341.15 K	305.91
342.65 K	307.41
344.15 K	308.91
345.65 K	310.4
347.15 K	311.88
348.65 K	313.36
350.15 K	314.84
351.65 K	316.31
353.15 K	317.77
